Assay: xn = mol fraction of the nth substance listed

CCCCCC + CCCCCCC
Settings | viscosity [mPa·s]
298 K, 101.33 kPa, x2 = 0.1005 | 0.3132
298 K, 101.33 kPa, x2 = 0.1957 | 0.3202
298 K, 101.33 kPa, x2 = 0.3837 | 0.3365
298 K, 101.33 kPa, x2 = 0.508 | 0.3471
298 K, 101.33 kPa, x2 = 0.6023 | 0.3554
298 K, 101.33 kPa, x2 = 0.7154 | 0.3649
298 K, 101.33 kPa, x2 = 0.8009 | 0.3727
298 K, 101.33 kPa, x2 = 0.8944 | 0.3801
298.15 K, 101 kPa, x2 = 0.2069 | 0.3145
298.15 K, 101 kPa, x2 = 0.2091 | 0.315
298.15 K, 101 kPa, x2 = 0.2351 | 0.316
298.15 K, 101 kPa, x2 = 0.2355 | 0.316
298.15 K, 101 kPa, x2 = 0.2614 | 0.317
298.15 K, 101 kPa, x2 = 0.2637 | 0.317
298.15 K, 101 kPa, x2 = 0.2921 | 0.319
298.15 K, 101 kPa, x2 = 0.2929 | 0.319
298.15 K, 101 kPa, x2 = 0.3129 | 0.32
298.15 K, 101 kPa, x2 = 0.3245 | 0.3205
298.15 K, 101 kPa, x2 = 0.3582 | 0.323
298.15 K, 101 kPa, x2 = 0.3665 | 0.3245
298.15 K, 101 kPa, x2 = 0.3904 | 0.325
298.15 K, 101 kPa, x2 = 0.3907 | 0.325
298.15 K, 101 kPa, x2 = 0.4267 | 0.3275
298.15 K, 101 kPa, x2 = 0.4279 | 0.328
298.15 K, 101 kPa, x2 = 0.4662 | 0.331
298.15 K, 101 kPa, x2 = 0.4687 | 0.331
298.15 K, 101 kPa, x2 = 0.5072 | 0.3345
298.15 K, 101 kPa, x2 = 0.5084 | 0.3345
298.15 K, 101 kPa, x2 = 0.5516 | 0.339
298.15 K, 101 kPa, x2 = 0.5526 | 0.338
298.15 K, 101 kPa, x2 = 0.5986 | 0.344
298.15 K, 101 kPa, x2 = 0.5994 | 0.344
298.15 K, 101 kPa, x2 = 0.6496 | 0.35
298.15 K, 101 kPa, x2 = 0.6507 | 0.35
298.15 K, 101 kPa, x2 = 0.6856 | 0.3545
298.15 K, 101 kPa, x2 = 0.6881 | 0.355
298.15 K, 101 kPa, x2 = 0.7266 | 0.3595
298.15 K, 101 kPa, x2 = 0.728 | 0.36
298.15 K, 101.33 kPa, x1 = 0.1059 | 0.3792
298.15 K, 101.33 kPa, x1 = 0.2067 | 0.3658
298.15 K, 101.33 kPa, x1 = 0.302 | 0.358
298.15 K, 101.33 kPa, x1 = 0.406 | 0.3485
298.15 K, 101.33 kPa, x1 = 0.5051 | 0.3409
298.15 K, 101.33 kPa, x1 = 0.6064 | 0.3305
298.15 K, 101.33 kPa, x1 = 0.704 | 0.3227
298.15 K, 101.33 kPa, x1 = 0.8008 | 0.3123
298.15 K, 101.33 kPa, x1 = 0.8993 | 0.3075

CC(C)CO + CCCCCCCCCC
viscosity [mPa·s], 100 kPa
Settings | x2 = 0.1004 | x2 = 0.1999 | x2 = 0.3 | x2 = 0.3999 | x2 = 0.5002 | x2 = 0.5996 | x2 = 0.7006 | x2 = 0.8 | x2 = 0.9
293.15 K | 2.872 | 2.191 | 1.749 | 1.456 | 1.254 | 1.117 | 1.024 | 0.966 | 0.933
298.15 K | 2.471 | 1.906 | – | – | 1.131 | – | 0.941 | 0.893 | 0.863
303.15 K | 2.139 | 1.673 | 1.368 | 1.165 | 1.027 | 0.932 | 0.869 | 0.828 | 0.803
308.15 K | 1.863 | 1.476 | 1.221 | 1.051 | 0.937 | 0.857 | 0.806 | 0.771 | 0.75
313.15 K | 1.632 | 1.309 | 1.095 | 0.954 | 0.859 | 0.793 | 0.749 | 0.72 | 0.702
318.15 K | 1.436 | 1.167 | 0.989 | 0.871 | 0.791 | 0.736 | 0.699 | 0.674 | 0.66
323.15 K | 1.272 | 1.046 | 0.897 | 0.798 | 0.732 | 0.686 | 0.654 | 0.634 | 0.622

C=CC(=O)OC + CC#N
viscosity [mPa·s], 100 kPa
Settings | 293.15 K | 298.15 K | 303.15 K | 308.15 K | 313.15 K | 318.15 K
x2 = 0.0591 | 0.4934 | 0.4511 | 0.4118 | 0.3786 | 0.3488 | 0.3221
x2 = 0.1171 | 0.4832 | 0.4422 | 0.4042 | 0.3721 | 0.3431 | 0.3171
x2 = 0.17 | 0.474 | 0.4343 | 0.3976 | 0.3664 | 0.3383 | 0.313
x2 = 0.2356 | 0.4627 | 0.4247 | 0.3896 | 0.3597 | 0.3327 | 0.3083
x2 = 0.2977 | 0.4524 | 0.416 | 0.3824 | 0.3537 | 0.3278 | 0.3043
x2 = 0.3615 | 0.4422 | 0.4074 | 0.3754 | 0.348 | 0.3232 | 0.3007
x2 = 0.4343 | 0.431 | 0.398 | 0.3679 | 0.3419 | 0.3185 | 0.2971
x2 = 0.5014 | 0.4212 | 0.3899 | 0.3614 | 0.3368 | 0.3146 | 0.2943
x2 = 0.5738 | 0.4112 | 0.3818 | 0.3551 | 0.332 | 0.311 | 0.2918
x2 = 0.6537 | 0.4009 | 0.3736 | 0.349 | 0.3274 | 0.3078 | 0.2897
x2 = 0.7623 | 0.3881 | 0.3635 | 0.3417 | 0.3223 | 0.3046 | 0.2883
x2 = 0.8155 | 0.3823 | 0.3592 | 0.3387 | 0.3204 | 0.3037 | 0.2882
x2 = 0.9074 | 0.3729 | 0.3523 | 0.3342 | 0.3179 | 0.303 | 0.2889

ClCC(Cl)Cl + N#CCc1ccccc1
Settings | viscosity [mPa·s]
303.15 K, 101 kPa, x2 = 0.3463 | 1.365

Reference: the CheMixHub viscosity set
